Experimental data as given in paper PMC12430443, “Discovery of Novel Benzamide-Based Sigma-1 Receptor Agonists with Enhanced Selectivity and Safety” (Molecules, 2025).
≈ marks a conversion by molar mass, not a printed value. Where two headings read alike, the source gives them in different places.

How the values were obtained:
D4.4 = D4.4 (Homo sapiens, UniProt P21917); assay: Off-target panel of recombinant human receptors; format: cell-based; conditions: 10 µM, duplicate; % inhibition of reference agonist activity
Experimental: (§1) Among the synthesized compounds, four derivatives were selected based on their affinity and selectivity profiles. […] The remaining compounds (2, 3, 6, and 7) were assessed for their agonist and antagonist activities across a panel of 58 receptors relevant to CNS disorders, including serotonin, adenosine, adrenergic, cannabinoid, dopamine, histamine, and muscarinic receptors. These assays were conducted at a concentration of 10 µM, in duplicate, utilizing aequorin [19], cAMP HTRF™ [20], and GTPγS binding assays, as detailed in Table 2. […] Specifically, compound 6 antagonized four receptors (5-HT2A, 5-HT2C, α1a, H1), while compound 7 was active against five receptors (5-HT2A, 5-HT3, α1a, H1, M1).
(§2) Agonist and antagonist activities of the test compound are expressed as the percentage of the activity of the reference agonist at its EC100 concentration or the percentage of inhibition of the reference agonist activity at its EC80 concentration, respectively.

[1] = Bidirectional permeability in Caco-2 cells; format: in vitro ADME; conditions: human; for Papp A→B at 10 µM / Papp B→A at 10 µM: pH 7.4, 10 µM; for Papp A→B at 10 µM: n = 2, read-out: Permeability A/B pH7.4/7.4; for Papp B→A at 10 µM: n = 2, read-out: Permeability B/A pH7.4/7.4; for efflux ratio at 10 µM: read-out: e-ratio
Experimental: (§3) Solubility and stability remained unchanged in simulated gastric fluid (SGF) and simulated intestinal fluid (SIF), which mimic gastrointestinal digestion. Intestinal permeability was assessed using a two-chamber system with apical (A, pH 6.5) and basolateral (B, pH 7.4) compartments, representing the luminal and blood/mesenteric lymph sides of the gastrointestinal tract, respectively. […] The efflux ratios for both compounds ranged between 1 and 2, indicating improved permeability relative to the reference compound 1.
(§4) Standardized in vitro ADME experiments were performed by Eurofins Cerep (Poitiers, France). Solubility assays were performed in PBS at pH 7.4, but also in simulated gastric fluid (SGF) and intestinal fluid (SIF), through the classical shake-flask method described by Lipinski et al., using HPLC-UV/VIS technology. The results were expressed in µM. The compound was classically evaluated at 10 µM for all of the ADME analyses. Bidirectional permeability (apical A to basolateral B pH 6.5/7.4, and basolateral B to apical A pH 7.4/6.5) was assessed in the epithelial colorectal adenocarcinoma cell line (Caco-2 cell line). The results were expressed as ×10^−6 cm/s (Papp) and as % recovery. The efflux ratio, i.e., Papp (B→A)/Papp(A→B), was calculated. Plasma protein binding was analyzed by HPLC-MS/MS after 4 h of incubation at 37 °C, as described by Banker et al.. Concentration was evaluated by LC/MS-MS. CYP inhibition was performed in human liver microsomes as described in [28]. Analysis of the respective metabolites was performed by HPLC-MS/MS. Transporter inhibition analysis was also performed in overexpressing cell lines. Respective metabolites for each specific transporter substrate were analyzed by fluorometry or scintillation counting, and % inhibition of control values were calculated. P-glycoprotein transporter substrate assessment was performed by bidirectional permeability analysis (apical A to basolateral B pH 7.4/7.4, and basolateral B to apical A pH 7.4/7.4) in the Caco-2 cell line with and without verapamil, as described in [26]. The results were expressed as ×10^−6 cm/s (Papp) and as % recovery. The efflux ratio was calculated as Papp(B→A)/Papp(A→B). CYP450 induction was assessed in human hepatocytes by measuring the mRNA levels of seven CYP isoforms via qPCR, as described in [40]. The compound was tested at 1, 10, and 100 μM, and fold-induction values were compared with predefined cut-off thresholds for each isoform and hepatocyte lot.

adrenergic α2b receptor = adrenergic α2b receptor (Homo sapiens, UniProt P18089); assay: Off-target panel, GTPγS binding assay; format: biochemical; conditions: 10 µM, duplicate; % inhibition of reference agonist activity
Experimental: as §1, with “M1). […]” for “M1).”
as §2
(§5) For the GTPγS scintillation proximity assay, optimized specific conditions were determined for each receptor. […] were estimated with a PerkinElmer TopCount reader.

adrenergic α2a receptor = adrenergic α2a receptor (Homo sapiens, UniProt P08913); assay: Off-target panel, GTPγS binding assay; format: biochemical; conditions: 10 µM, duplicate; % inhibition of reference agonist activity
Experimental: as §1, with “M1). […]” for “M1).”
as §2, §5

[2] = Solubility, shake-flask method, HPLC-UV/VIS; format: physicochemical; conditions: thermodynamic from solid, n = 2
Experimental: as §3, §4

adrenergic α1a receptor = adrenergic α1a receptor (Homo sapiens, UniProt P35348); assay: Off-target panel, aequorin functional assay; format: cell-based; conditions: 10 µM, duplicate; % inhibition of reference agonist activity
Experimental: as §1
(§6) Rapidly, the tests were performed by Euroscreen (https://euroscreenfast.com/) with recombinant human G-coupled receptor-expressing cell lines using aequorin functional assays for serotonin 5-HT2A, 5-HT2B, 5-HT2C, 5-HT3, and 5-HT5A, adrenergic α1a and α1b, angiotensin AT1, cholesistokinin CCFK1, endothelin ETA, histamine H1, muscarinic M1 and M3, neurokinin NK1 and NK2, vasopressin V1a, and vasoactive intestinal peptide VPAC1 receptor analysis. Then, cAMP HTRF^TM assays were used to analyze serotonin 5-HT1A, 5-HT4E, 5-HT6, and 5-HT7, adenosine A1, A2A, and A3, adrenergic β1 and β2, cannabinoid CB1, dopamine D1, histamine H2, and neuropeptide Y NPY receptors. GTPγS^35 assays were used to analyze serotonin 5-HT1B, adrenergic α2a and α2b, dopamine D2, muscarinic M2 and M4, opioid δ, κ and µ, and somatostatine SST4 receptors.
as §2
(§7) For the aequorin assays, different cell lines co-expressing the receptors were grown in specific culture media and incubated for 4 h with coelenterazine h. For agonist testing, cell suspensions were mixed with test or reference agonists in a 96-well plate. For antagonist testing, the reference agonist at its EC80 (final concentration) was injected to the mix the containing cells and the tested compound. The resulting emission of light was recorded using the Hamamatsu Functional Drug Screening System 6000 [19].

[3] = target: serotonin 5-HT2A receptor (Homo sapiens, UniProt P28223); assay: Off-target panel, aequorin functional assay; format: cell-based; conditions: 10 µM, duplicate; % inhibition of reference agonist activity
Experimental: as §1, §6, §2, §7

adrenergic α1b receptor = adrenergic α1b receptor (Homo sapiens, UniProt P35368); assay: Off-target panel, aequorin functional assay; format: cell-based; conditions: 10 µM, duplicate; % inhibition of reference agonist activity
Experimental: as §1, §6, §2, §7

serotonin 5-HT3 receptor = serotonin 5-HT3 receptor (Homo sapiens, UniProt P46098); assay: Off-target panel, aequorin functional assay; format: cell-based; conditions: 10 µM, duplicate; % inhibition of reference agonist activity
Experimental: as §1, §6, §2, §7

histamine H1 receptor = histamine H1 receptor (Homo sapiens, UniProt P35367); assay: Off-target panel, aequorin functional assay; format: cell-based; conditions: 10 µM
Experimental: as §1, §6, §2, §7

[4] = aqueous buffer, PBS pH 7.4, read-out: Solubility PBSpH7.4
[5] = simulated gastric fluid (SGF), simulated gastric fluid, read-out: Solubility SGF
[6] = simulated intestinal fluid (SIF), fassgf or other biorelevant, simulated intestinal fluid, read-out: Solubility SIF

Chain of serotonin 5-HT2A receptor (P28223 whole entry): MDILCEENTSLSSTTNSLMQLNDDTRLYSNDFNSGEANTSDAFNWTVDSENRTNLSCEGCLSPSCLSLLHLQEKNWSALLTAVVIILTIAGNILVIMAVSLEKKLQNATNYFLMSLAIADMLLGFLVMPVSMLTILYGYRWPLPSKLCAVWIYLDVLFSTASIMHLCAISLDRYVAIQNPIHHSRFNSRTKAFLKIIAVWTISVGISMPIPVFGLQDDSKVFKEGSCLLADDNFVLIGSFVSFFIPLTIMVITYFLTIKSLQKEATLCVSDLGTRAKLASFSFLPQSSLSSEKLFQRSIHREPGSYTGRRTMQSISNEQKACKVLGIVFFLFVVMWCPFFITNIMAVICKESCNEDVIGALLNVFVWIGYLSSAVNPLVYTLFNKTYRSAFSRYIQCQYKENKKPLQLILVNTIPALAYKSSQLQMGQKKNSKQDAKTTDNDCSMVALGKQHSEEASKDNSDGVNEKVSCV
Chain of D4.4 (P21917 whole entry): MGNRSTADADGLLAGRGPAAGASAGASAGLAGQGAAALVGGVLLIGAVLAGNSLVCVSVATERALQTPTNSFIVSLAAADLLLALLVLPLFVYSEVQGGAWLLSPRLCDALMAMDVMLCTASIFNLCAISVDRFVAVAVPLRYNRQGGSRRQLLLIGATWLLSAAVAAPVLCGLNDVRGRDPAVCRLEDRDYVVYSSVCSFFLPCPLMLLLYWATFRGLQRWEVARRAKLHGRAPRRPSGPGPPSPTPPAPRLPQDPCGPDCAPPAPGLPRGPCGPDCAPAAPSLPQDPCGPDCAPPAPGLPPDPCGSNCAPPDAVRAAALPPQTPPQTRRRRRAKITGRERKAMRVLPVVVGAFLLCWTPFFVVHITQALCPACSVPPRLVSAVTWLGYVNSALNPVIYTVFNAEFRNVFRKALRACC
Chain of adrenergic α1a receptor (P35348 whole entry): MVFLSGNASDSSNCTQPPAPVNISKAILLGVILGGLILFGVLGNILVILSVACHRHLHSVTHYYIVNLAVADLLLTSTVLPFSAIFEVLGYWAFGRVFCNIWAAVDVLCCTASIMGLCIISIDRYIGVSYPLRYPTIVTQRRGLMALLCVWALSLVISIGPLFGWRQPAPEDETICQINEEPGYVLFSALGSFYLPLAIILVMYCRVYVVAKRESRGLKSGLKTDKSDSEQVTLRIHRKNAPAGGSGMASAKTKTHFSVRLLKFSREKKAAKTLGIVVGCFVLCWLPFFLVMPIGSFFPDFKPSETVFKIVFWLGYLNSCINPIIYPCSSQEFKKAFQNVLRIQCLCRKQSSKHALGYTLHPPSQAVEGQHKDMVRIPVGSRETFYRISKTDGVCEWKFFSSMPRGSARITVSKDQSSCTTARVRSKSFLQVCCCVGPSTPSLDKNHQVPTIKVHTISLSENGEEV
Chain of adrenergic α1b receptor (P35368 whole entry): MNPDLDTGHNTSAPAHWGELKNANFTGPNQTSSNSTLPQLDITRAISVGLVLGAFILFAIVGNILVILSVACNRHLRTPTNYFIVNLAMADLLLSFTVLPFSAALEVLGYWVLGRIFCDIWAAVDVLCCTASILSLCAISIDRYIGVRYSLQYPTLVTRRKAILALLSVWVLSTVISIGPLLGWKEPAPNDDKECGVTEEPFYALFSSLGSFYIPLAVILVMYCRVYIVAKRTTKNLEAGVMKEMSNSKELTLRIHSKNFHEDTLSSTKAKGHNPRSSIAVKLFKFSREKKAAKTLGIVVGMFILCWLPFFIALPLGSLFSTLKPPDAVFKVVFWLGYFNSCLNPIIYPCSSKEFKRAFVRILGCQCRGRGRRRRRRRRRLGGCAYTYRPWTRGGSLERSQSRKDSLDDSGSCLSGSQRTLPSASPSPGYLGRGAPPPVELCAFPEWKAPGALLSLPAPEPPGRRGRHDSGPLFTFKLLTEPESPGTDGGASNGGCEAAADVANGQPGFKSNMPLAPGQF
Chain of serotonin 5-HT3 receptor (P46098 24-478): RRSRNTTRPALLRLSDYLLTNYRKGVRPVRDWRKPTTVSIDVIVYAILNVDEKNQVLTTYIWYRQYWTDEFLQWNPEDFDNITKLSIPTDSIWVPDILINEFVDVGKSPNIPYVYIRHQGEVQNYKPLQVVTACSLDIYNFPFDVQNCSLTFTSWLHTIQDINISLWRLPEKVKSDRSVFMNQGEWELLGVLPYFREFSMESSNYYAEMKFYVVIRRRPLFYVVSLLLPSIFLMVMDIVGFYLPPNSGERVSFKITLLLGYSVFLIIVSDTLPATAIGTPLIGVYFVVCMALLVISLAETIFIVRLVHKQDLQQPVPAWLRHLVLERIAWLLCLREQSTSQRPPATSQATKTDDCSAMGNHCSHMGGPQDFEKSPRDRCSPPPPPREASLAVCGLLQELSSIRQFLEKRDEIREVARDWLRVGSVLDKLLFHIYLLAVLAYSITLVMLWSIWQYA
Chain of histamine H1 receptor (P35367 whole entry): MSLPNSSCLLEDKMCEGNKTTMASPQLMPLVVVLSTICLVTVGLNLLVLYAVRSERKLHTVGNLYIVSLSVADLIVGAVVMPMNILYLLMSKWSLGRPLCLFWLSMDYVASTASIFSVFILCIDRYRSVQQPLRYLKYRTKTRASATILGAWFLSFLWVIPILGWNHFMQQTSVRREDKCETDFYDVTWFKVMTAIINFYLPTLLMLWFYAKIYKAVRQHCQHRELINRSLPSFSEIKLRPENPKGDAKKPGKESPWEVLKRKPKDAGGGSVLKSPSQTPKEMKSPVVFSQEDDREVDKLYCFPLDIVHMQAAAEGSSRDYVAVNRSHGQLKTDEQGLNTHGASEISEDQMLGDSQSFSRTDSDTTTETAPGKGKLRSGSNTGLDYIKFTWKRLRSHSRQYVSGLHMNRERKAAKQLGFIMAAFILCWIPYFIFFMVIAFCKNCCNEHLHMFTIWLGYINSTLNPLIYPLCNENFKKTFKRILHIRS
Chain of adrenergic α2a receptor (P08913 whole entry): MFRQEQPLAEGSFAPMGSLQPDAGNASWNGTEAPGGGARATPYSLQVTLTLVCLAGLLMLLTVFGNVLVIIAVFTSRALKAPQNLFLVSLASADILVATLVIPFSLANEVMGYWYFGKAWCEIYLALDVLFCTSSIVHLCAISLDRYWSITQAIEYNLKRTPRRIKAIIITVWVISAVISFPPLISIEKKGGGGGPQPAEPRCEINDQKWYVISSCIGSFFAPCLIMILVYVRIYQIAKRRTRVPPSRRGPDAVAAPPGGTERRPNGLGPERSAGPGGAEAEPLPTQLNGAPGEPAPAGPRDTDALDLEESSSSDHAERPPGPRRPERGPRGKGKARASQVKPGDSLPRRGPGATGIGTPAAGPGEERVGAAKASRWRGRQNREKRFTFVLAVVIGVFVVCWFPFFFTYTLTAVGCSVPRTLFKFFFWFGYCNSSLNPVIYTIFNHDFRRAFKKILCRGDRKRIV
Chain of adrenergic α2b receptor (P18089 whole entry): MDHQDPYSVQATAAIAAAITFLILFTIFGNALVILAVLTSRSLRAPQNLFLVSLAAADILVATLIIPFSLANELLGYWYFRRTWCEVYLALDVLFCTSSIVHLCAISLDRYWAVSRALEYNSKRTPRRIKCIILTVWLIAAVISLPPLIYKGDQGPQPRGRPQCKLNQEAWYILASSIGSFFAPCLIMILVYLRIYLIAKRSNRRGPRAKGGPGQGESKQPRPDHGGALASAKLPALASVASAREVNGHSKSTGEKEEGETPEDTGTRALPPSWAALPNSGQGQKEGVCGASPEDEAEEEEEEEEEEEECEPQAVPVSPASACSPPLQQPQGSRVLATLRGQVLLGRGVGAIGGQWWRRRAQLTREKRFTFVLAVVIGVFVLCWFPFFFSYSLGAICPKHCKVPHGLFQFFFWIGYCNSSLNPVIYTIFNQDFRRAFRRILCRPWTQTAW

| Structure (SMILES) | D4.4 [b] antagonist activity (D4.4) [%] | Papp A→B at 10 µM [1] [×10⁻⁶ cm/s] | Papp B→A at 10 µM [1] [×10⁻⁶ cm/s] | efflux ratio at 10 µM [1] | α2b [b] antagonist activity (adrenergic α2b receptor) [%] | α2a [b] antagonist activity (adrenergic α2a receptor) [%] | solubility [2, 4] [µM] | solubility [2, 5] [µM] | solubility [2, 6] [µM] | α1a [b] antagonist activity (adrenergic α1a receptor) [%] | 5-HT2A [b] antagonist activity [3] | α1b [b] antagonist activity (adrenergic α1b receptor) [%] | 5-HT3 [b] antagonist activity (serotonin 5-HT3 receptor) [%] | H1 antagonist activity (in words) (histamine H1 receptor) |
| --- | --- | --- | --- | --- | --- | --- | --- | --- | --- | --- | --- | --- | --- | --- |
| CN(CCC(=O)NCc1cccc(Cl)c1)Cc1ccccc1 [Compound 2, 3-(Benzylmethylamino)-N-(3-chlorobenzyl)propanamide] | 64 | 39 | 67.4 | 1.7 | 59 | 61 | 167 (≈ 52.9 µg/mL) | 186 (≈ 58.9 µg/mL) | 181 (≈ 57.3 µg/mL) | 64 | 72% | 70 | 68 |  |
| CN(CCC(=O)NCc1ccc(C#N)cc1)Cc1ccccc1 [Compound 6, 3-(Benzylmethylamino)-N-(4-cyanobenzyl)propanamide] |  | 49.8 | 60.9 | 1.2 |  |  | 190 (≈ 58.4 µg/mL) | 178 (≈ 54.7 µg/mL) | 190 (≈ 58.4 µg/mL) |  | antagonized |  |  | antagonized |
